Experimental data taken from patent US20030162751A1, “Pharmaceutical composition comprising 5' monophosphate ester of riboflavin and solubilized riboflavin” (priority 2001, published 2003).
Values after ≈ are worked out from the molar mass of the structure shown. Like-named read-outs stand apart in the source and are kept apart here.

What was measured:
[1] = Solubility of riboflavin as a function of pH and % FMN; assay type: physicochemical
From the text: The intrinsic solubility of riboflavin is approximately 70 mcg/ml (see plot below with no FMN present). Precipitation is expected to occur if riboflavin reaches a level above this (due to riboflavin in drug substance or due to degradation to riboflavin with time), and precipitation would be unacceptable for patient safety with intravenous use.
Solubility of Riboflavin as a function of pH and % FMN [formula]
At 1% FMN, up to 365 mcg/ml of riboflavin can dissolve.

[2] = Solubilization of lumichrome in the FMN formulation; assay type: physicochemical; details: in the current FMN formulation

Row | SMILES | solubility ([1]; 1% FMN solution, aqueous with cosolvent or surfactant or cyclodextrin, read-out: riboflavin solubility (amount that can dissolve)) | solubility ([1]; 5% FMN solution, aqueous with cosolvent or surfactant or cyclodextrin, 5% FMN, pH 7-8, read-out: riboflavin solubility (amount that can dissolve)) | intrinsic (equilibrium) solubility of riboflavin ([1]; no FMN present) | solubility ([1]; no FMN present, read-out: intrinsic (equilibrium) solubility of riboflavin) | solubility of lumichrome relative to equilibrium solubility [2]
1 | Cc1cc2nc3c(=O)[nH]c(=O)nc-3n(C[C@H](O)[C@H](O)[C@H](O)CO)c2cc1C [riboflavin] | ≤ 365 µg/mL | ≤ 1320 µg/mL | approximately 70 mcg/ml | ~70 µg/mL (≈ 186 µM) | 
2 | Cc1cc2nc3[nH]c(=O)[nH]c(=O)c3nc2cc1C [lumichrome] |  |  |  |  | dissolve at levels above the equilibrium solubility
